Data published in patent US12473304B2, “Heterocyclic PAD4 inhibitors” (BRISTOL-MYERS SQUIBB COMPANY, priority 2020, dated 2025).

These compounds were tested against human PAD4 (hPAD4) (Homo sapiens (Human), UniProt Q9UM07) (assay: RFMS Human PAD4 Functional Assay 1). Details: RFMS assay 1; 5 nM hPAD4, 250 μM BAEE substrate, 50 μM calcium, 37° C.
Assay type: biochemical
Method in brief: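 Recombinant hPAD4 (5 nM) was preincubated with compound (top 50 μM, 0.5% DMSO) for 30 min at 37 °C, then reacted with 250 μM BAEE for 90 min at 37 °C in pH 7.5 HEPES buffer with 50 μM calcium and 5 μM TPEN. Product was derivatized with phenyl glyoxal and quantified by RapidFire MS.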

Sequence of human PAD4 (hPAD4) (Q9UM07 whole entry): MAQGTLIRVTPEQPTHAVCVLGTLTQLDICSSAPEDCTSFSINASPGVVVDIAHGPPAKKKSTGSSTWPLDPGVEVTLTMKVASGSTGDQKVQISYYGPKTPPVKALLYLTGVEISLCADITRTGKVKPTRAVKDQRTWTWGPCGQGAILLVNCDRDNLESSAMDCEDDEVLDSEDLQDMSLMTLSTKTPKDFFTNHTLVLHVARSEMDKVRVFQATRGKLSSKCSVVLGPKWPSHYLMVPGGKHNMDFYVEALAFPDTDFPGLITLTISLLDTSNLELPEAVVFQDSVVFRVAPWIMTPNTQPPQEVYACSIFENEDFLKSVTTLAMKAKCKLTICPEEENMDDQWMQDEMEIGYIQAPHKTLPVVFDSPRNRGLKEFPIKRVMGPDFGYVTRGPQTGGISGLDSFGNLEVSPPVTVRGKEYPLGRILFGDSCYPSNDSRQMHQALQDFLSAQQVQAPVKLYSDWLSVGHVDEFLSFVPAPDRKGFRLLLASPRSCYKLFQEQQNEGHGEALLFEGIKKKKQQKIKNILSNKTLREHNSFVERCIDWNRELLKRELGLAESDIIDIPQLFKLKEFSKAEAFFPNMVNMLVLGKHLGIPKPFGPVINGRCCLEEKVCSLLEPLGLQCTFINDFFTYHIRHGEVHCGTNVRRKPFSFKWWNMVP

SMILES	IC50 [nM]
Cc1c(-c2cc3cccnc3n2CC2CC2)nn2cc(C(=O)N3C[C@H](N)C[C@@H](F)C3)cc(F)c12 [Example 52, ((3R,5R)-3-Amino-5-fluoropiperidin-1-yl)(2-(1-(cyclopropylmethyl)-1H-pyrrolo[2,3-b]pyridin-2-yl)-4-fluoro-3-methylpyrazolo[1,5-a]pyridin-6-yl)methanone]	882
Cc1c(-c2cc3ccc(Cl)nc3n2CC2CC2)nn2cc(C(=O)N3C[C@H](N)C[C@@H](F)C3)cc(F)c12 [Example 53, ((3R,5R)-3-Amino-5-fluoropiperidin-1-yl)(2-(6-chloro-1-(cyclopropylmethyl)-1H-pyrrolo[2,3-b]pyridin-2-yl)-4-fluoro-3-methylpyrazolo[1,5-a]pyridin-6-yl)methanone]	446
Cc1ccc2cc(-c3nn4cc(C(=O)N5C[C@H](N)C[C@@H](F)C5)cc(F)c4c3C)n(CC3CC3)c2n1 [Example 54, ((3R,5R)-3-Amino-5-fluoropiperidin-1-yl)(2-(1-(cyclopropylmethyl)-6-methyl-1H-pyrrolo[2,3-b]pyridin-2-yl)-4-fluoro-3-methylpyrazolo[1,5-a]pyridin-6-yl)methanone]	358
Cc1c(-c2cc3ccc(-c4cccc(O)c4F)nc3n2CC2CC2)nn2cc(C(=O)N3C[C@H](N)C[C@@H](F)C3)cc(F)c12 [Example 55, ((3R,5R)-3-Amino-5-fluoropiperidin-1-yl)(2-(1-(cyclopropylmethyl)-6-(2-fluoro-3-hydroxyphenyl)-1H-pyrrolo[2,3-b]pyridin-2-yl)-4-fluoro-3-methylpyrazolo[1,5-a]pyridin-6-yl)methanone]	543
Cc1c(-c2cc3ccc(-c4ccc(C(N)=O)c(F)c4)nc3n2CC2CC2)nn2cc(C(=O)N3C[C@H](N)C[C@@H](F)C3)cc(F)c12 [Example 56, 4-(2-(6-((3R,5R)-3-Amino-5-fluoropiperidine-1-carbonyl)-4-fluoro-3-methylpyrazolo[1,5-a]pyridin-2-yl)-1-(cyclopropylmethyl)-1H-pyrrolo[2,3-b]pyridin-6-yl)-2-fluorobenzamide]	468
Cc1c(-c2cc3ccc(C4CC4)nc3n2CC2CC2)nn2cc(C(=O)N3C[C@H](N)C[C@@H](F)C3)cc(F)c12 [Example 57, ((3R,5R)-3-Amino-5-fluoropiperidin-1-yl)(2-(6-cyclopropyl-1-(cyclopropylmethyl)-1H-pyrrolo[2,3-b]pyridin-2-yl)-4-fluoro-3-methylpyrazolo[1,5-a]pyridin-6-yl)methanone]	781
Cc1c(-c2cc3ccc(-c4ccc(Cl)c5c(NS(C)(=O)=O)nn(C)c45)cc3n2CC2CC2)nn2cc(C(=O)N3CC4CCC3[C@@H]4N)cc(F)c12 (stereo partly drawn) [Example 58, N-(7-(2-(6-((7R)-7-Amino-2-azabicyclo[2.2.1]heptane-2-carbonyl)-4-fluoro-3-methylpyrazolo[1,5-a]pyridin-2-yl)-1-(cyclopropylmethyl)-1H-indol-6-yl)-4-chloro-1-methyl-1H-indazol-3-yl)methanesulfonamide]	83
Cc1c(-c2cc3ccc(-c4cccc(O)c4F)cc3n2CC2CC2)nn2cc(C(=O)N3CC4CCC3[C@@H]4N)cc(F)c12 (stereo partly drawn) [Example 59, ((7R)-7-Amino-2-azabicyclo[2.2.1]heptan-2-yl)(2-(1-(cyclopropylmethyl)-6-(2-fluoro-3-hydroxyphenyl)-1H-indol-2-yl)-4-fluoro-3-methylpyrazolo[1,5-a]pyridin-6-yl)methanone]	291
Cc1c(-c2cc3ccc(-c4ccc(O)c(F)c4)cc3n2CC2CC2)nn2cc(C(=O)N3CC4CCC3[C@@H]4N)cc(F)c12 (stereo partly drawn) [Example 60, ((7R)-7-Amino-2-azabicyclo[2.2.1]heptan-2-yl)(2-(1-(cyclopropylmethyl)-6-(3-fluoro-4-hydroxyphenyl)-1H-indol-2-yl)-4-fluoro-3-methylpyrazolo[1,5-a]pyridin-6-yl)methanone]	83
Cc1c(-c2cc3cccnc3n2CC2CC2)nn2cc(C(=O)N3CC4CCC3[C@@H]4N)ccc12 (stereo partly drawn) [Example 63, ((7R)-7-Amino-2-azabicyclo[2.2.1]heptan-2-yl)(2-(1-(cyclopropylmethyl)-1H-pyrrolo[2,3-b]pyridin-2-yl)-3-methylpyrazolo[1,5-a]pyridin-6-yl)methanone]	227
COc1cc(-c2ccc3cc(-c4nn5cc(C(=O)N6CC7CCC6[C@@H]7N)ccc5c4C)n(CC4CC4)c3n2)c(F)cn1 (stereo partly drawn) [Example 72, ((7R)-7-Amino-2-azabicyclo[2.2.1]heptan-2-yl)(2-(1-(cyclopropylmethyl)-6-(5-fluoro-2-methoxypyridin-4-yl)-1H-pyrrolo[2,3-b]pyridin-2-yl)-3-methylpyrazolo[1,5-a]pyridin-6-yl)methanone]	67
Cc1c(-c2cc3ccc(-c4ccc(OC(F)F)c(F)c4)nc3n2CC2CC2)nn2cc(C(=O)N3CC4CCC3[C@@H]4N)ccc12 (stereo partly drawn) [Example 73, ((7R)-7-Amino-2-azabicyclo[2.2.1]heptan-2-yl)(2-(1-(cyclopropylmethyl)-6-(4-(difluoromethoxy)-3-fluorophenyl)-1H-pyrrolo[2,3-b]pyridin-2-yl)-3-methylpyrazolo[1,5-a]pyridin-6-yl)methanone]	605
Cc1c(-c2cc3ccc(-c4cc(F)c(O)c(F)c4)nc3n2CC2CC2)nn2cc(C(=O)N3CC4CCC3[C@@H]4N)ccc12 (stereo partly drawn) [Example 74, ((7R)-7-Amino-2-azabicyclo[2.2.1]heptan-2-yl)(2-(1-(cyclopropylmethyl)-6-(3,5-difluoro-4-hydroxyphenyl)-1H-pyrrolo[2,3-b]pyridin-2-yl)-3-methylpyrazolo[1,5-a]pyridin-6-yl)methanone]	425
Cc1c(-c2cc3ccc(-c4ccc(F)c(O)c4)nc3n2CC2CC2)nn2cc(C(=O)N3CC4CCC3[C@@H]4N)ccc12 (stereo partly drawn) [Example 75, ((7R)-7-Amino-2-azabicyclo[2.2.1]heptan-2-yl)(2-(1-(cyclopropylmethyl)-6-(4-fluoro-3-hydroxyphenyl)-1H-pyrrolo[2,3-b]pyridin-2-yl)-3-methylpyrazolo[1,5-a]pyridin-6-yl)methanone]	166
COC1CCN(c2ccc3cc(-c4nn5cc(C(=O)N6CC7CCC6[C@@H]7N)ccc5c4C)n(CC4CC4)c3n2)CC1 (stereo partly drawn) [Example 76, ((7R)-7-Amino-2-azabicyclo[2.2.1]heptan-2-yl)(2-(1-(cyclopropylmethyl)-6-(4-methoxypiperidin-1-yl)-1H-pyrrolo[2,3-b]pyridin-2-yl)-3-methylpyrazolo[1,5-a]pyridin-6-yl)methanone]	96

Stronger by IC50, values ahead:

IC50 [nM]	SMILES
28	Cc1c(-c2cc3ccc(-c4ccn5c(C)nnc5c4)cc3n2CC2CC2)nn2cc(C(=O)N3CC4CCC3[C@@H]4N)cc(F)c12 (stereo partly drawn) [Example 62, ((7R)-7-Amino-2-azabicyclo[2.2.1]heptan-2-yl)(2-(1-(cyclopropylmethyl)-6-(3-methyl-[1,2,4]triazolo[4,3-a]pyridin-7-yl)-1H-indol-2-yl)-4-fluoro-3-methylpyrazolo[1,5-a]pyridin-6-yl)methanone]
25	Cc1c(-c2cc3ccc(-c4ccc5c(c4)C(=O)NC5)nc3n2CC2CC2)nn2cc(C(=O)N3CC4CCC3[C@@H]4N)ccc12 (stereo partly drawn) [Example 65, 6-(2-(6-((7R)-7-Amino-2-azabicyclo[2.2.1]heptane-2-carbonyl)-3-methylpyrazolo[1,5-a]pyridin-2-yl)-1-(cyclopropylmethyl)-1H-pyrrolo[2,3-b]pyridin-6-yl)isoindolin-1-one]
59	Cc1ccc2cc(-c3nn4cc(C(=O)N5CC6CCC5[C@@H]6N)ccc4c3C)n(CC3CC3)c2n1 (stereo partly drawn) [Example 66, ((7R)-7-Amino-2-azabicyclo[2.2.1]heptan-2-yl)(2-(1-(cyclopropylmethyl)-6-methyl-1H-pyrrolo[2,3-b]pyridin-2-yl)-3-methylpyrazolo[1,5-a]pyridin-6-yl)methanone]
23	Cc1c(-c2cc3ccc(-c4ccc(O)c(F)c4)nc3n2CC2CC2)nn2cc(C(=O)N3CC4CCC3[C@@H]4N)ccc12 (stereo partly drawn) [Example 67, ((7R)-7-Amino-2-azabicyclo[2.2.1]heptan-2-yl)(2-(1-(cyclopropylmethyl)-6-(3-fluoro-4-hydroxyphenyl)-1H-pyrrolo[2,3-b]pyridin-2-yl)-3-methylpyrazolo[1,5-a]pyridin-6-yl)methanone]
26	Cc1c(-c2cc3ccc(-c4cccc(O)c4F)nc3n2CC2CC2)nn2cc(C(=O)N3CC4CCC3[C@@H]4N)ccc12 (stereo partly drawn) [Example 68, ((7R)-7-Amino-2-azabicyclo[2.2.1]heptan-2-yl)(2-(1-(cyclopropylmethyl)-6-(2-fluoro-3-hydroxyphenyl)-1H-pyrrolo[2,3-b]pyridin-2-yl)-3-methylpyrazolo[1,5-a]pyridin-6-yl)methanone]
19	Cc1c(-c2cc3ccc(-c4ccc(C(N)=O)c(F)c4)nc3n2CC2CC2)nn2cc(C(=O)N3CC4CCC3[C@@H]4N)ccc12 (stereo partly drawn) [Example 69, 4-(2-(6-((7R)-7-Amino-2-azabicyclo[2.2.1]heptane-2-carbonyl)-3-methylpyrazolo[1,5-a]pyridin-2-yl)-1-(cyclopropylmethyl)-1H-pyrrolo[2,3-b]pyridin-6-yl)-2-fluorobenzamide]
15	Cc1c(-c2cc3ccc(-c4ccn5c(C)nnc5c4)nc3n2CC2CC2)nn2cc(C(=O)N3CC4CCC3[C@@H]4N)ccc12 (stereo partly drawn) [Example 70, ((7R)-7-Amino-2-azabicyclo[2.2.1]heptan-2-yl)(2-(1-(cyclopropylmethyl)-6-(3-methyl-[1,2,4]triazolo[4,3-a]pyridin-7-yl)-1H-pyrrolo[2,3-b]pyridin-2-yl)-3-methylpyrazolo[1,5-a]pyridin-6-yl)methanone]
22	Cc1c(-c2cc3ccc(C4CC4)nc3n2CC2CC2)nn2cc(C(=O)N3CC4CCC3[C@@H]4N)ccc12 (stereo partly drawn) [Example 71, ((7R)-7-Amino-2-azabicyclo[2.2.1]heptan-2-yl)(2-(6-cyclopropyl-1-(cyclopropylmethyl)-1H-pyrrolo[2,3-b]pyridin-2-yl)-3-methylpyrazolo[1,5-a]pyridin-6-yl)methanone]
